Tests used:
[1] = molecular target: IL-2-Inducible T-Cell Kinase (ITK) (Homo sapiens (Human), UniProt Q08881); test: ITK enzyme assay (IL-2-inducible T-cell kinase activity); type: biochemical; details: geometric mean of count n
Method: ITK activity was determined by measuring the effect of a test compound in an ITK enzyme assay.
1.0 M HEPES Buffer pH 7.5 solution was prepared as follows: 238.3 g HEPES free acid (Sigma) and 800 mL of water were combined, and the mixture was stirred until complete dissolution. The pH was adjusted to 7.5 via titration with 5N NaOH and the volume adjusted to 1000 mL. The solution was filtered and sterilized.
ITK assay buffer was prepared as follows: 50 mL of HPLC-grade water was treated with 2 mL of 1.0 M HEPES Buffer, 500 μL of 2% Gelatin (Sigma), 1.0 mL of aqueous MgCl2 solution (1.0 M), and 1.0 mL of aqueous glutathione solution (0.5 M), and the solution was mixed. The solution was brought to 99 mL in a graduated cylinder by addition of water and sterilized through a 0.2 μm filter. 0.1 mL of Brij-35™ Surfact-Amps™ Detergent Solution (10% w/v aqueous solution, ThermoFisher) and 1.0 mL of ATP (Teknova,100 mM) were added and the solution was mixed.
Preparation of 1.33× ITK enzyme solution was as follows: 49.99 mL of ITK assay buffer was treated with 4.1 μL of ITK enzyme (ITK FL (N-Flag and C-His tagged, […]) Lake Pharma, 0.25 mg/ml in a buffer containing 25 mM Tris pH 7.8, 150 mM NaCl, 10% glycerol and 2 mM TCEP) and the mixture was gently agitated. The resulting solution was stored on ice. 30 Minutes prior to use, the enzyme solution was removed from ice and equilibrated to RT by incubation in a RT water bath.
Preparation of 4× ITK substrate solution was as follows: 50 mL of ITK assay buffer was treated with 100 μL of BTK peptide (China Peptide Company, 2 mM stock solution in DMSO). The tube was capped, mixed by gently inverting the tube, and then stored on ice. 30 Minutes prior to use, the substrate solution was removed from ice and equilibrated to RT by incubation in a RT water bath.
At the time of assay, 7.5 μL of the 1.33× ITK enzyme solution was added to plate wells containing 0.1 μL of varying concentrations of test compound in DMSO. The plate was incubated 30 min at RT. The plate wells were each treated with 2.5 uL of the 4× ITK substrate solution and the plate was sealed (TopSeal™, Perkin Elmer). The plate was spun at 1000 rpm for 30 sec and then incubated for 60 min at RT. The seal was removed, and each well was treated with 10 μL of Stop/Detect Buffer (20 mM HEPES pH 7.5, 0.01% gelatin, 1 nM LANCE PT66 (Perkin Elmer), 16.5 μg/ml Surelight APC (Perkin Elmer), 10 mM EDTA, 250 mM NaCl). The plate was again covered and was spun at 1000 rpm for […]. The plate was allowed to incubate overnight at RT and in a closed carrier to reduce dehydration. The seal was removed, and the fluorescence was read with a plate reader with an excitation wavelength of […]. The concentrations and resulting effect values for the tested compound were plotted and the concentration of compound required for 50% effect (IC50) was determined with the four-parameter logistic dose response equation.

[2] = system: activated CD4+ human T-cells (IL-2); test: IL-2 inhibition in supernatants from activated CD4+ human T-cells (cisbio HTRF); type: cell-based; details: T-cell; CD3/CD28-activated CD4+ human T cells, ImmunoCult stimulation 20 to 24 hrs; geometric mean of count n
Method: IL-2 inhibition activity in supernatants from activated CD4+ human T-cells was determined by measuring the effect of a test compound on the activity using the cisbio HTRF™ technology.
Human CD4+ T cells were activated with CD3/CD28 for 3 days and expanded for an additional 4-6 days (7 to 9 days total). On day 0, frozen CD4+ T cells were thawed, treated with CD3/CD28 Dynabeads, and incubated at 37° C./5% CO2. On day 3, the beads were removed, and the cells were diluted to 5×10^5 cells/cm^2, placed in G-Rex10 flask, and incubated at 37° C./5% CO2. On day 7 to day 9 the cells were removed from the G-Rex flasks, counted and diluted back to 1×10^6 cells/ml in standard tissue culture flask.
The expanded CD4+ T-cells were centrifuged at 300×g for 10 minutes and resuspended to 0.5 million cells per ml (30,000 cells/well). 60 μl of CD4+ T cells were added per well to a 384 well plate containing 0.1 μL of varying concentrations of test compound in DMSO. The plates were incubated for 15 min at 37° C./5% CO2. 20 μl of diluted ImmunoCult™ (STEMCELL Technologies, 1:12.5 in T cell assay media) were added to all wells of the plate (1:50 final assay concentration). The plates were incubated for an additional 20 to 24 hrs at 37° C./5% CO2. The plates were centrifuged at 300×g for 10 minutes. 16 μL of supernatant was removed and combined with 4 μl of IL-2 HTRF Abs. (cisbio kit). Plates were incubated for 3 hours at RT and read with an EnVision plate reader at 665 nm and 615 nm wavelengths. The concentrations and resulting effect values for the tested compound were plotted and the concentration of compound required for 50% effect (IC50) was determined with the four-parameter logistic dose response equation.

Sequence of IL-2-Inducible T-Cell Kinase (ITK) (Q08881 whole entry): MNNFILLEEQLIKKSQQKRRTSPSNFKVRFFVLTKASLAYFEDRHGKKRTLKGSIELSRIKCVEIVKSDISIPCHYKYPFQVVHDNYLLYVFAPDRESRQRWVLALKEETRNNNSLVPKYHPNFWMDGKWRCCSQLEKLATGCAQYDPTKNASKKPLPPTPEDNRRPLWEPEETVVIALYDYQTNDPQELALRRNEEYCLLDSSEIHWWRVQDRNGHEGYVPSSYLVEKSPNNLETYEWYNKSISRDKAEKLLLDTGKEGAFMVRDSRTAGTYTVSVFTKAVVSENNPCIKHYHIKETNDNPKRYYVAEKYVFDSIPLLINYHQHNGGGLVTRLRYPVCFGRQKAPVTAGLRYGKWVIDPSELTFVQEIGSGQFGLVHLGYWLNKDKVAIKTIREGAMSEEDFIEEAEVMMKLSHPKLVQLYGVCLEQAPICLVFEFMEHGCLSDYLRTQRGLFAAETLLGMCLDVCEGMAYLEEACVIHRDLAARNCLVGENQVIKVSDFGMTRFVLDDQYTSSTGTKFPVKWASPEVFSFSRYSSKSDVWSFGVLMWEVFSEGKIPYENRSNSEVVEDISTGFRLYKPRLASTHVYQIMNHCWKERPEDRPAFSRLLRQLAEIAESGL

SMILES	IC50 [1]	IC50 [2]
CN(C(=O)C1CCOCC1)c1cnc2nc(-c3n[nH]c4c3C[C@@H]3C[C@]3(C)C4)[nH]c2c1 [Example 46, N-Methyl-N-(2-((4aS,5aR)-5a-methyl-1,4,4a,5,5a,6-hexahydrocyclopropa[f]indazol-3-yl)-1H-imidazo[4,5-b]pyridin-6-yl)tetrahydro-2H-pyran-4-carboxamide]	123 nM	294 nM
CN(C(=O)C1CCCCC1)c1cnc2nc(-c3n[nH]c4c3C[C@@H]3C[C@]3(C)C4)[nH]c2c1 [Example 51, N-Methyl-N-(2-((4aS,5aR)-5a-methyl-1,4,4a,5,5a,6-hexahydrocyclopropa[f]indazol-3-yl)-1H-imidazo[4,5-b]pyridin-6-yl)cyclohexanecarboxamide]	37 nM	108 nM
CN(C(=O)CC1CCOCC1)c1cnc2nc(-c3n[nH]c4c3C[C@@H]3C[C@]3(C)C4)[nH]c2c1 [Example 52, N-Methyl-N-(2-((4aS,5aR)-5a-methyl-1,4,4a,5,5a,6-hexahydrocyclopropa[f]indazol-3-yl)-1H-imidazo[4,5-b]pyridin-6-yl)-2-(tetrahydro-2H-pyran-4-yl)acetamide]	51 nM	189 nM
CN(C(=O)C(C)(C)CN1CCOCC1)c1cnc2nc(-c3n[nH]c4c3C[C@@H]3C[C@]3(C)C4)[nH]c2c1 [Example 53, N,2,2-Trimethyl-N-(2-((4aS,5aR)-5a-methyl-1,4,4a,5,5a,6-hexahydrocyclopropa[f]indazol-3-yl)-1H-imidazo[4,5-b]pyridin-6-yl)-3-morpholinopropanamide]	88 nM	304 nM
CN(C(=O)C1C[C@@H]2[C@H](C1)C2(F)F)c1cnc2nc(-c3n[nH]c4c3C[C@@H]3C[C@]3(C)C4)[nH]c2c1 (stereo partly drawn) [Example 55, (1R,5S)-6,6-Difluoro-N-methyl-N-(2-((4aS,5aR)-5a-methyl-1,4,4a,5,5a,6-hexahydrocyclopropa[f]indazol-3-yl)-1H-imidazo[4,5-b]pyridin-6-yl)bicyclo[3.1.0]hexane-3-carboxamide]	20 nM	93 nM
CN(C(=O)CN1CCOCC1=O)c1cnc2nc(-c3n[nH]c4c3C[C@@H]3C[C@]3(C)C4)[nH]c2c1 [Example 56, N-Methyl-N-(2-((4aS,5aR)-5a-methyl-1,4,4a,5,5a,6-hexahydrocyclopropa[f]indazol-3-yl)-1H-imidazo[4,5-b]pyridin-6-yl)-2-(3-oxomorpholino)acetamide]	54 nM	611 nM
CN(C(=O)C12CC(F)(C1)C2)c1cnc2nc(-c3n[nH]c4c3C[C@@H]3C[C@]3(C)C4)[nH]c2c1 [Example 59]	109 nM	370 nM
CN(C(=O)C(C)(C)C1CCOCC1)c1cnc2nc(-c3n[nH]c4c3CC3C[C@]3(C)C4)[nH]c2c1 (stereo partly drawn) [Example 60, N,2-Dimethyl-N-(2-((4aS,5aR)-5a-methyl-1,4,4a,5,5a,6-hexahydrocyclopropa[f]indazol-3-yl)-1H-imidazo[4,5-b]pyridin-6-yl)-2-(tetrahydro-2H-pyran-4-yl)propenamide]	63 nM	182 nM
CN(C(=O)C1(C)CCC(F)(F)CC1)c1cnc2nc(-c3n[nH]c4c3C[C@@H]3C[C@]3(C)C4)[nH]c2c1 [Example 62, 4,4-Difluoro-N,1-dimethyl-N-(2-((4aS,5aR)-5a-methyl-1,4,4a,5,5a,6-hexahydrocyclopropa[f]indazol-3-yl)-1H-imidazo[4,5-b]pyridin-6-yl)cyclohexane-1-carboxamide]	141 nM	402 nM
CN(C(=O)C1(C2CCC2)CCC1)c1cnc2nc(-c3n[nH]c4c3C[C@@H]3C[C@]3(C)C4)[nH]c2c1 [Example 63, N-Methyl-N-(2-((4aS,5aR)-5a-methyl-1,4,4a,5,5a,6-hexahydrocyclopropa[f]indazol-3-yl)-1H-imidazo[4,5-b]pyridin-6-yl)-[1,1′-bi(cyclobutane)]-1-carboxamide]	40 nM	338 nM
CN(C(=O)[C@@H]1CCCCO1)c1cnc2nc(-c3n[nH]c4c3C[C@@H]3C[C@]3(C)C4)[nH]c2c1 [Example 64, (S)-N-Methyl-N-(2-((4aS,5aR)-5a-methyl-1,4,4a,5,5a,6-hexahydrocyclopropa[f]indazol-3-yl)-1H-imidazo[4,5-b]pyridin-6-yl)tetrahydro-2H-pyran-2-carboxamide]	103 nM	208 nM
CCC1(C(=O)N(C)c2cnc3nc(-c4n[nH]c5c4C[C@@H]4C[C@]4(C)C5)[nH]c3c2)CCOCC1 [Example 65, 4-Ethyl-N-methyl-N-(2-((4aS,5aR)-5a-methyl-1,4,4a,5,5a,6-hexahydrocyclopropa[f]indazol-3-yl)-1H-imidazo[4,5-b]pyridin-6-yl)tetrahydro-2H-pyran-4-carboxamide]	150 nM	568 nM
CN(C(=O)C1(C)CC(F)(F)C1)c1cnc2nc(-c3n[nH]c4c3C[C@@H]3C[C@]3(C)C4)[nH]c2c1 [Example 66, 3,3-Difluoro-N,1-dimethyl-N-(2-((4aS,5aR)-5a-methyl-1,4,4a,5,5a,6-hexahydrocyclopropa[f]indazol-3-yl)-1H-imidazo[4,5-b]pyridin-6-yl)cyclobutane-1-carboxamide]	92 nM	292 nM
CN(C(=O)[C@@H]1C[C@@H]2[C@H](C1)C2(F)F)c1cnc2nc(-c3n[nH]c4c3C[C@@H]3C[C@]3(C)C4)[nH]c2c1 [Example 67, (1R,3s,5S)-6,6-Difluoro-N-methyl-N-(2-((4aS,5aR)-5a-methyl-1,4,4a,5,5a,6-hexahydrocyclopropa[f]indazol-3-yl)-1H-imidazo[4,5-b]pyridin-6-yl)bicyclo[3.1.0]hexane-3-carboxamide]	12 nM	59 nM
CN(C(=O)[C@H]1CCCCO1)c1cnc2nc(-c3n[nH]c4c3C[C@@H]3C[C@]3(C)C4)[nH]c2c1 [Example 68, (R)-N-Methyl-N-(2-((4aS,5aR)-5a-methyl-1,4,4a,5,5a,6-hexahydrocyclopropa[f]indazol-3-yl)-1H-imidazo[4,5-b]pyridin-6-yl)tetrahydro-2H-pyran-2-carboxamide]	107 nM	177 nM
CN(C(=O)[C@H]1[C@@H]2COC[C@@H]21)c1cnc2nc(-c3n[nH]c4c3C[C@@H]3C[C@]3(C)C4)[nH]c2c1 [Example 69, (1R,5S,6r)-N-Methyl-N-(2-((4aS,5aR)-5a-methyl-1,4,4a,5,5a,6-hexahydrocyclopropa[f]indazol-3-yl)-1H-imidazo[4,5-b]pyridin-6-yl)-3-oxabicyclo[3.1.0]hexane-6-carboxamide]	292 nM	1160 nM

Source: patent US20240124439A1, “Pyrido[2,3-D]Imidazole Derivatives and Their Use As Inhibitors of ITK for the Treatment of Skin Disease” (Pfizer Inc., priority 2020, published 2024)
